Data published in patent US4980377A, “1-(aminophenyl)-2-aminopropanone derivatives” (Laboratoire L. Lafon, priority 1984, dated 1990).
Entries after “also recorded” stand apart in the source; their conditions may differ.

Key:
mice [1] = test: Four plate test, traction and electric shock; type: in vivo, mouse; settings: i.p.
Protocol: The test is performed on groups of 10 mice 30 minutes after the administration of CRL 41 153.

mice [2] = test: Interaction with reserpine; type: in vivo, mouse; settings: i.p.
Protocol: Four hours after the intraperitoneal injection of 2.5 mg/kg of reserpine, groups of 6 mice receive CRL 41 153.

rats [3] = test: Overall behavior and reactivities in rats; type: in vivo, rat; settings: dose not stated
Protocol: (§1) In the neuropsychopharmacological study which follows, a solution of CRL 41 153 in distilled water (pH 1.5) was administered intraperitoneally in a volume of 20 ml/kg to male mice and 5 ml/kg to male rats.
(§2) Groups of three animals are observed before and then 0.25 hour, 0.50 hour, 1 hour, 2 hours, 3 hours and 24 hours after the administration of CRL 41 153.

mice [4] = test: Overall behavior and reactivities in mice; type: in vivo, mouse; settings: dose not stated
Protocol: as §1, §2

mice [5] = test: Particular toxicity in grouped mice; settings: mice
Protocol: The number of dead animals is noted after 1 hour, 2 hours, 3 hours, 4 hours and 24 hours.

mice [6] = test: Behavioral despair; type: in vivo, mouse; settings: forcibly immersed mice, i.p.
From the text: Half an hour after they have received CRL 41 153, groups of 6 mice are placed in a beaker filled with water to a height of 6 cm. The total period of immobility between the 2nd and 6th minutes following immersion is noted.

rats [7] = test: Interaction with amphetamine; type: in vivo, rat; settings: i.p.
Protocol: Amphetamine (2 mg/kg) is injected intraperitoneally into groups of 6 rats 30 minutes after the administration of CRL 41 153. […] 4 mg/kg and 16 mg/kg, CRL 41 153 potentiates the intensity and duration of the stereotypies induced by amphetamine.

[8] = test system: nigrostriatal dopaminergic system; test: Interaction with alpha-methyltyrosine on stereotypies (difference from amphetamine); settings: α-methyltyrosine (catecholamine synthesis blocked)
mice [9] = test: Interaction with barbital; type: in vivo, mouse; settings: i.p., barbital 220 mg/kg
Protocol: Half an hour after the administration of CRL 41 153, groups of 10 mice receive an intraperitoneal injection of barbital (220 mg/kg).

mice [10] = test: Interaction with oxotremorine; type: in vivo, mouse; settings: i.p.
Protocol: CRL 41 153 is administered to groups of 6 mice 0.5 hour before the intraperitoneal injection of 0.5 mg/kg of oxotremorine.

mice [11] = test: Motility reduced by habituation to the enclosure; type: in vivo, mouse; settings: i.p.
Protocol: After they have stayed In the actimeters for 18 hours, (he mice (6 per dose, 12 control animals) receive CRL 41 153. They are immediately returned to their respective enclosures and, half an hour later, their motility is recorded for 30 minutes.

CNS [12] = test: Complementary tests by oral (gastric) administration; type: in vivo; settings: gastric vs i.p.
rats [13] = test: Interaction with apomorphine in rats; type: in vivo, rat; settings: i.p.
Protocol: CRL 41 153 is administered to groups of 6 rats 0.5 hour before the subcutaneous injection of 0.5 mg/kg of apomorphine.

[14] = test system: gravid White New Zealand female rabbits; test: Teratogenicity in gravid White New Zealand rabbits; type: in vivo, rabbit; settings: day 5 to day 18 of gestation; for Affected foetuses, %: normal limit 1.5%
In short: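 Fetuses harvested by cesarean on gestation day 29 were scored for number and for any malformation (limb blockade, anury, tail or skull defects, exencephaly).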

mice [15] = test: Spontaneous motility; type: in vivo, mouse; settings: i.p.
Protocol: 0.5 hour after they have received CRL 41 153, the mice (6 per dose, 12 control animals) are placed in an actimeter, where their motility is recorded for 30 minutes.

CNS [16] = test: Neuropsychopharmacological profile as a whole; type: in vivo, mice and rats
Protocol: as §1

mice [17] = test: Motility reduced by hypoxic aggression; type: in vivo, mouse; settings: i.p.
Protocol: Half an hour after they have received CRL 41 153, the mice (10 per dose, 20 control animals) are subjected to acute hypobaric anoxia [pressure reduction of 600 mm Hg (i.e. about 8×10^4 Pa) in 90 seconds; release of vacuum in 45 seconds] and are then placed in an actimeter, where their motility is recorded for 10 minutes.

mice [18] = test: Interaction with apomorphine in mice; type: in vivo, mouse; settings: i.p.
Protocol: Groups of 6 mice receive CRL 41 153 0.5 hour before the subcutaneous injection of 1 or 16 mg/kg of apomorphine.

## CC(NC(C)(C)C)C(=O)c1ccc(N)cc1 (centres unmarked) [CRL 41 178]
Mice [1]
  Effect on convulsant effects of electric shock: at high doses, antagonism of the convulsant effects of electric shock
Mice [2]
  Effect on hypothermia induced by reserpine: antagonism of the hypothermia
  Effect on ptosis induced by reserpine: slight antagonism of the ptosis induced by reserpine
Rats [3]
  Overall behavior: observed effects (summary): excitation and hyperreactivity in mice and rats
  Stereotype movements (summary): presence of stereotype movements
Mice [4]
  Overall behavior: observed effects (summary): excitation and hyperreactivity in mice and rats
Mice [5]
  Particular toxicity to grouped mice: existence of a particular toxicity to grouped mice
Mice [6]
  Period of immobility due to despair: reduction in the period of immobility
Rats [7]
  Effect on stereotypies induced by amphetamine: potentiation of the effects of apomorphine and amphetamine in rats
[8]
  Effect of alpha-methyltyrosine on the stereotypies induced by the substance: differs from amphetamine in the mechanism of the effects which cause stereotypies
Mice [9]
  Duration of the sleep induced by barbital: antagonism of the sleep induced by barbital
Mice [10]
  Effect on hypothermic action of oxotremorine: antagonism of the hypothermia
Mice [11]
  Motor activity of mice accustomed to their enclosure: resumption in the activity of mice accustomed to their enclosure
CNS [12]
  Action on gastric (oral) administration compared with intraperitoneal: same types of action as after intraperitoneal administration; also recorded: the antidepressant effects are apparently developed better by oral administration than by intraperitoneal administration
Rats [13]
  Effect on stereotypies induced by apomorphine: potentiation of the effects of apomorphine and amphetamine in rats
[14]; 5 mg/kg daily
  Affected foetuses, number: 1
  Total foetuses (live): 90
  Affected foetuses, %: 1.11%
[14]; 10 mg/kg daily
  Affected foetuses, number: 1
  Total foetuses (live): 83
  Affected foetuses, %: 1.20%
[14]; 50 mg/kg daily
  Affected foetuses, number: 1
  Total foetuses (live): 92
  Affected foetuses, %: 1.10%
Mice [15]
  Spontaneous motor activity: increase in the motor activity
CNS [16]; conclusion of the tests
  Anticonvulsant effects (overall): anticonvulsant effects
  Antidepressant effects (overall): more modest antidepressant effects; also recorded: antidepressant component
  Stimulant effects (overall): distinct stimulant effects; also recorded: behaves as a stimulant as from the weakest doses
  α-adrenergic stimulant effects (overall): moderate α-adrenergic stimulant effects
CNS [16]; species and dose not stated
  Peripheral α-adrenergic signs (mydriasis, salivation, lacrimation, exophthalmos): mydriasis (with neither piloerection nor salivation)
Mice [17]
  Motor recovery of mice after hypobaric hypoxia: improvement in the motor recovery of mice whose activity has been depressed following hypobaric hypoxia
Mice [18]
  Effect on hypothermia induced by apomorphine: antagonism of the hypothermia
